Results: publication doi:10.1101/2021.10.07.463234v2 (biorxiv, 2021)
Counter-ions that a name gives are not always drawn.

molecular target: SARS-CoV-2 Mac1 (Severe acute respiratory syndrome coronavirus 2, UniProt P0DTD1); test: biochemical; conditions: 100 µM; inhibitor

Row | SMILES | %inhibition
1 | CCc1cc2c(cc1CC)CC(NC[C@H](O)c1ccc(O)c3[nH]c(=O)ccc13)C2 [Indacaterol Maleate] | 2.994%
2 | CCc1cc2c(cc1CC)CC(NC[C@H](O)c1ccc(O)c3[nH]c(=O)ccc13)C2 [Indacaterol] | 1.05%
3 | COc1ccc2c(c1)c(CC(=O)O)c(C)n2C(=O)c1ccc(Cl)cc1 [Indometacin Sodium] | 0%
4 | COc1ccc2c(c1)c(CC(=O)O)c(C)n2C(=O)c1ccc(Cl)cc1 [Indomethacin] | 39.29%
5 | N[C@@H](Cc1cc(I)c(Oc2cc(I)c(O)c(I)c2)c(I)c1)C(=O)O [L-Thyroxine] | 10.74%
6 | OC[C@@H](O)[C@@H](O[C@@H]1O[C@H](CO)[C@H](O)[C@H](O)[C@H]1O)[C@H](O)[C@@H](O)CO [Lactitol monohydrate] | 1.512%
7 | OC[C@@H](O)[C@@H](O[C@@H]1O[C@H](CO)[C@H](O)[C@H](O)[C@H]1O)[C@H](O)[C@@H](O)CO [Lactitol] | 5.8%
8 | CS(=O)(=O)CCNCc1ccc(-c2ccc3ncnc(Nc4ccc(OCc5cccc(F)c5)c(Cl)c4)c3c2)o1 [Lapatinib (GW-572016) Ditosylate] | 16.67%
9 | CS(=O)(=O)CCNCc1ccc(-c2ccc3ncnc(Nc4ccc(OCc5cccc(F)c5)c(Cl)c4)c3c2)o1 [Lapatinib ditosylate monohydrate] | 13.25%
10 | CS(=O)(=O)CCNCc1ccc(-c2ccc3ncnc(Nc4ccc(OCc5cccc(F)c5)c(Cl)c4)c3c2)o1 [Lapatinib] | 0%
11 | COc1cc2nccc(Oc3ccc(NC(=O)NC4CC4)c(Cl)c3)c2cc1C(N)=O [Lenvatinib (E7080)] | 22.86%

same assay, conditions: read-out: %inhibition

Row | SMILES | inhibition at 100 µM
12 | CC1Cc2ccccc2N1NC(=O)c1ccc(Cl)c(S(N)(=O)=O)c1 (stereo not drawn) [Indapamide] | 36.3%
13 | O=C1/C(=C2\Nc3ccc(S(=O)(=O)O)cc3C2=O)Nc2ccc(S(=O)(=O)O)cc21 [Indigo carmine] | 39.3%
14 | O=C1/C(=C2\Nc3ccccc3C2=O)Nc2ccccc21 [Indigo] | 9.76%
15 | NC(=O)c1ccc(I)c([N+](=O)[O-])c1 [Iniparib (BSI-201)] | 31%
16 | O=c1[nH]cnc2c1ncn2[C@@H]1O[C@H](CO)[C@@H](O)[C@H]1O [Inosine] | 0%
17 | CC(=O)N(CC(O)CN(C(C)=O)c1c(I)c(C(=O)NC[C@@H](O)CO)c(I)c(C(=O)NC[C@@H](O)CO)c1I)c1c(I)c(C(=O)NC[C@@H](O)CO)c(I)c(C(=O)NC[C@@H](O)CO)c1I [Iodixanol] | 0.797%
18 | C[C@H](O)C(=O)Nc1c(I)c(C(=O)NC(CO)CO)c(I)c(C(=O)NC(CO)CO)c1I [Iopamidol] | 0%
19 | CCC(Cc1c(I)cc(I)c(N)c1I)C(=O)O (stereo not drawn) [Iopanoic acid] | 0%
20 | O=C(NCC(O)CO)c1c(I)c(C(=O)NCC(O)CO)c(I)c(N(CCO)C(=O)CO)c1I (stereo not drawn) [Ioversol] | 25.5%
21 | CC(C)[N+]1(C)[C@@H]2CC[C@H]1C[C@@H](OC(=O)C(CO)c1ccccc1)C2 (stereo partly drawn) [Ipratropium Bromide] | 9.25%
22 | CC(C)Oc1ccc2c(=O)c(-c3ccccc3)coc2c1 [Ipriflavone (Osteofix)] | 0%
23 | CCCCC1=NC2(CCCC2)C(=O)N1Cc1ccc(-c2ccccc2-c2nnn[nH]2)cc1 [Irbesartan] | 2.32%
24 | CCc1c2c(nc3ccc(OC(=O)N4CCC(N5CCCCC5)CC4)cc13)-c1cc3c(c(=O)n1C2)COC(=O)[C@]3(O)CC [Irinotecan HCl Trihydrate] | 0%
25 | Nc1nc(N)nc(-c2cc(Cl)ccc2Cl)n1 [Irsogladine] | 22.5%
26 | C[C@@H](c1nc(-c2ccc(C#N)cc2)cs1)[C@](O)(Cn1cncn1)c1cc(F)ccc1F [Isavuconazole] | 0%
27 | CN[C@@H]1[C@@H](O)[C@@H](O[C@@H]2[C@@H](O)[C@H](O[C@H]3O[C@H](CN)[C@@H](O)[C@H](O)[C@H]3O)[C@@H](N)C[C@H]2NC(=O)[C@@H](O)CN)OC[C@]1(C)O [Isepamicin Sulphate] | 5.6%
28 | Clc1ccc(C(Cn2ccnc2)OCc2c(Cl)cccc2Cl)c(Cl)c1 (stereo not drawn) [Isoconazole nitrate] | 34.7%
29 | CCC(NC(C)C)C(O)c1ccc(O)c(O)c1 (stereo not drawn) [Isoetharine Mesylate] | 17.6%
30 | NNC(=O)c1ccncc1 [Isoniazid] | 24.4%
31 | CC(C)NCC(O)c1ccc(O)c(O)c1 (stereo not drawn) [Isoprenaline HCl] | 5.07%
32 | O=[N+]([O-])O[C@@H]1CO[C@H]2[C@@H]1OC[C@@H]2O [Isosorbide Mononitrate] | 2.49%
33 | O[C@@H]1CO[C@H]2[C@@H]1OC[C@@H]2O [Isosorbide] | 17.9%

Row | SMILES | inhibition at 100 µM
34 | CC1=C(/C=C/C(C)=C/C=C/C(C)=C\C(=O)O)C(C)(C)CCC1 [Isotretinoin] | 0%
35 | Cc1cc(NC(=O)C2=C(O)c3ccccc3S(=O)(=O)N2C)no1 [Isoxicam] | 13.6%
36 | Cc1ccc(C(=O)N(CCCN)[C@@H](c2nc3cc(Cl)ccc3c(=O)n2Cc2ccccc2)C(C)C)cc1 [Ispinesib (SB-715992)] | 0%
37 | COC(=O)C1=C(C)NC(C)=C(C(=O)OC(C)C)C1c1cccc2nonc12 (stereo not drawn) [Isradipine] | 0%
38 | CCn1c(=O)c2c(nc(/C=C/c3ccc(OC)c(OC)c3)n2C)n(CC)c1=O [Istradefylline] | 28.9%
39 | COc1ccc(C(=O)NCc2ccc(OCCN(C)C)cc2)cc1OC [Itopride hydrochloride] | 0%
40 | COc1cc2c(cc1OC)CC(=O)N(CCCN(C)C[C@H]1Cc3cc(OC)c(OC)cc31)CC2 [Ivabradine HCl] | 0%
41 | CC(C)(C)c1cc(C(C)(C)C)c(NC(=O)c2c[nH]c3ccccc3c2=O)cc1O [Ivacaftor (VX-770)] | 5.97%
42 | N#Cc1ccnc(N2C(=O)CC[C@H]2C(=O)N(c2cncc(F)c2)[C@H](C(=O)NC2CC(F)(F)C2)c2ccccc2Cl)c1 [Ivosidenib (AG-120)] | 9.59%
43 | C/C(=C\c1csc(C)n1)[C@@H]1C[C@@H]2O[C@]2(C)CCC[C@H](C)[C@H](O)[C@@H](C)C(=O)C(C)(C)[C@@H](O)CC(=O)N1 [Ixabepilone (BMS-247550)] | 5.68%
44 | CC(C)C[C@H](NC(=O)CNC(=O)c1cc(Cl)ccc1Cl)B(O)O [Ixazomib (MLN2238)] | 5.63%
45 | CC(C)C[C@H](NC(=O)CNC(=O)c1cc(Cl)ccc1Cl)B1OC(=O)CC(CC(=O)O)(C(=O)O)O1 (stereo partly drawn) [Ixazomib Citrate (MLN9708)] | 0%
46 | NC[C@H]1O[C@H](O[C@H]2[C@H](O)[C@@H](O[C@H]3O[C@H](CO)[C@@H](O)[C@H](N)[C@H]3O)[C@H](N)C[C@@H]2N)[C@H](O)[C@@H](O)[C@@H]1O [Kanamycin sulfate] | 4.88%
47 | O=C(c1ccc(F)cc1)C1CCN(CCn2c(=O)[nH]c3ccccc3c2=O)CC1 [Ketanserin] | 11.6%
48 | CC(C(=O)O)c1cccc(C(=O)c2ccccc2)c1 (stereo not drawn) [Ketoprofen] | 0%
49 | O=C(c1ccccc1)c1ccc2n1CCC2C(=O)O (stereo not drawn) [Ketorolac] | 11.8%
50 | CN1CCC(=C2c3ccccc3CC(=O)c3sccc32)CC1 [Ketotifen Fumarate] | 0%
51 | CNC[C@@H](O)c1ccc(O)c(O)c1 [L-Adrenaline] | 31.6%
52 | N=C(N)NCCC[C@H](N)C(=O)O [L-Arginine HCl (L-Arg)] | 0%
53 | N[C@H]1CONC1=O [L-Cycloserine] | 1.65%
54 | N[C@@H](CS)C(=O)O [L-Cysteine HCl] | 0%
55 | N[C@@H](CCC(=O)O)C(=O)O [L-Glutamic acid monosodium salt] | 0%

Row | SMILES | inhibition at 100 µM
56 | NC(=O)CC[C@H](N)C(=O)O [L-Glutamine] | 0%
57 | CC(C)C[C@H](N)C(=O)O [L-Leucine] | 0%
58 | NCCCC[C@H](N)C(=O)O [L-Lysine hydrochloride] | 9.1%
59 | NCCC[C@H](N)C(=O)O [L-Ornithine] | 0%
60 | C[Se]CC[C@H](N)C(=O)O [L-SelenoMethionine] | 0%
61 | C[N+](C)(C)C[C@H](O)CC(=O)[O-] [L-carnitine] | 3.55%
62 | CC(CCc1ccccc1)NCC(O)c1ccc(O)c(C(N)=O)c1 (stereo not drawn) [Labetalol HCl] | 0%
63 | CCOC(=O)C1=C(C)NC(C)=C(C(=O)OCC)C1c1ccccc1/C=C/C(=O)OC(C)(C)C [Lacidipine] | 3.07%
64 | O=C(C[S+]([O-])Cc1ccco1)NC/C=C\COc1cc(CN2CCCCC2)ccn1 (stereo not drawn) [Lafutidine] | 0%
65 | Nc1ccn([C@@H]2CS[C@H](CO)O2)c(=O)n1 [Lamivudine] | 0%
66 | Nc1nnc(-c2cccc(Cl)c2Cl)c(N)n1 [Lamotrigine] | 12.3%
67 | CC1(C)OC[C@@H](COC(=O)CCc2ccc(OC[C@@H](O)CNCCNC(=O)N3CCOCC3)cc2)O1 [Landiolol hydrochloride] | 18%
68 | Cc1c(OCC(F)(F)F)ccnc1C[S+]([O-])c1nc2ccccc2[nH]1 (stereo not drawn) [Lansoprazole] | 4.45%
69 | CCN(C(=O)c1c(O)c2c(Cl)cccc2n(C)c1=O)c1ccccc1 [Laquinimod] | 22.6%
70 | CO[C@@]1(NC(=O)C(C(=O)O)c2ccc(O)cc2)C(=O)N2C(C(=O)O)=C(CSc3nnnn3C)CO[C@@H]21 (stereo partly drawn) [Latamoxef sodium] | 17%
71 | CC(C)OC(=O)CCC/C=C\C[C@@H]1[C@@H](CC[C@@H](O)CCc2ccccc2)[C@H](O)C[C@@H]1O [Latanoprost] | 23.8%
72 | COC(=O)N[C@H](C(=O)N1CC2(CC2)C[C@H]1c1nc(-c2ccc3c(c2)C(F)(F)c2cc(-c4ccc5[nH]c([C@@H]6[C@H]7CC[C@H](C7)N6C(=O)[C@@H](NC(=O)OC)C(C)C)nc5c4)ccc2-3)c[nH]1)C(C)C [Ledipasvir (GS5885)] | 23.8%
73 | Cc1oncc1C(=O)Nc1ccc(C(F)(F)F)cc1 [Leflunomide] | 22.5%
74 | Nc1cccc2c1CN(C1CCC(=O)NC1=O)C2=O (stereo not drawn) [Lenalidomide (CC-5013)] | 40.3%
75 | COC(=O)C1=C(C)NC(C)=C(C(=O)OC(C)(C)CN(C)CCC(c2ccccc2)c2ccccc2)C1c1cccc([N+](=O)[O-])c1 (stereo not drawn) [Lercanidipine hydrochloride] | 0%
